Measured values reported in US20220017541A1, “INHIBITORS OF ARGINASE” (Black Belt Tx Ltd, priority 2018, published 2022).

Experiment: Plasma concentration after single IV or PO dose in mice (LC/MS/MS)
Assay type: in vivo
Parameters: Plasma concentration PO @ t = 30 min: dose or concentration left out as unconfirmed
Conditions: 30 min after dosing
Protocol: Compounds were formulated at 0.4 and 1 mg/ml in a vehicle containing Poly-Ethylene Glycol 400 (PEG400; Cat. No. #91893, Sigma Aldrich) as dosing solutions for intravenous and oral administration, respectively. Male C57BL6 mice, approximately 8-10 weeks old (22-25 grams), were obtained from the vivarium Fundación Ciencia & Vida Chile (Santiago, Chile) and maintained in a temperature-controlled room with 12/12 hr light/dark schedule with food and water ad libitum. Animals were acclimated for a minimum period of 4 days upon arrival at the testing facility.
At the day of study, mice were weighed, identified by marking the tail with numbers using a non-toxic permanent marker and designated into the experimental groups (n=3 per group). Each mouse of IV dosing groups received the systemic administration of 2 mg/kg dosing solution via caudal vein. […] No.: FTP-2038; Instech Salomon Inc.).
Blood samples were harvested by terminal cardiac puncture at 30 min after dosing. Non-dosed mice were used to collect samples of zero time points. Whole blood was collected into microtainer tubes with (K2) EDTA (Cat. No.: 365974, Becton Dickinson & Co.). Blood samples were centrifuged immediately at 9,000 g at 4° C. for 5 min and then plasmas were separated. Plasma samples were placed into individually labeled cryovials and stored in a −80° C. freezer until LC/MS/MS bioanalysis.
The bioanalysis of plasma samples to determine concentrations of exemplary compounds of the invention was conducted with a QTRAP 4500 triple quadrupole mass spectrometer (Applied Biosystems SCIEX) in the positive ion mode and interfaced with an ekspert ultraLC 100-XL UPLC System (eksigent). Calibration standards (0.01 to 100 μM) and QCs (0.2, 2.0 and 20 μM) were prepared from naïve mouse plasma in parallel with mouse plasma study samples (60 μl) by precipitation with three volumes of ice cold internal standard solution (acetonitrile containing 20 μM of theophylline). The precipitated samples were centrifuged at 6,100 g for 30 min at 4° C. Following centrifugation, an aliquot of each supernatant was transferred into a clean sample vial and diluted with two volumes of aqueous mobile phase (0.2% formic acid in water). Samples were injected onto a reverse phase analytical column (YMC Triart C18; 2.0×50 mm; 1.9 μm; YMC CO) and eluted with a gradient of 0.1 or 0.2% formic acid in Acetonitrile. Test compound and internal standard were monitored by a multiple reaction monitoring (MRM) experiment using an Analyst software (v 1.6.2, Applied Biosystems SCIEX). Quantitation was conducted using a MultiQuant software (v 2.1, Applied Biosystems SCIEX) and the resulting calibration curve was fitted with a linear or quadratic regression and 1/× weighting. The lower limit of quantitation were between 0.01-0.03 μM.
IV and PO PK parameters were calculated from the concentration-time data using Phoenix WinNonlin software (v 6.4, Certara, Princeton, N.J.) by noncompartmental analysis in the sparse sampling mode.

Row | Compound | Plasma concentration PO @ t = 30 min | Plasma concentration 2 mg/Kg IV @ t = 30 min
1 | NC(CCCCB(O)O)(C(=O)O)C1CCN(C2CCc3ccccc32)CC1 (single isomer, unassigned) [Compound 2, 2-amino-6-borono-2-(1-(2,3-dihydro-1H-inden-1-yl)piperidin-4-yl)hexanoic acid] | + (plasma concentration < 500 nM) | 
2 | NC(CCCCB(O)O)(C(=O)O)C1CCN(C2CCCc3ccccc32)CC1 (single isomer, unassigned) [Compound 5, 2-amino-6-borono-2-(1-(1,2,3,4-tetrahydronaphthalen-1-yl)piperidin-4-yl)hexanoic acid] | + (plasma concentration < 500 nM) | ++ (plasma concentration > 1000 nM for test compound)
3 | CC(c1ccccc1)N1CCC(C(N)(CCCCB(O)O)C(=O)O)CC1 (single isomer, unassigned) [Compound 10, 2-amino-6-borono-2-(1-(1-phenylethyl)piperidin-4-yl)hexanoic acid] | + (plasma concentration < 500 nM) | + (plasma concentration < 500 nM)
4 | NC(CCCCB(O)O)(C(=O)O)C1CCN(C2CCCc3ccc(F)cc32)CC1 (single isomer, unassigned) [Compound 83, 2-amino-6-borono-2-(1-(7-fluoro-1,2,3,4-tetrahydronaphthalen-1-yl)piperidin-4-yl)hexanoic acid] | + (plasma concentration < 500 nM) | 
